We go through 3 substances from patent US20150065421A1, “BASAL INSULIN THERAPY” (SANOFI, priority 2012, published 2015).

Assay [1] in a line: Respective studies with other long-acting insulins. It counts as in vivo. Particulars: no data given. The text has this:
The results of the ORIGIN study were obtained with the long-lasting insulin glargine.

The subject of assay [2] is critical-care post-surgical patients. Conditions: intervention group: insulin infusion to blood glucose 80-110 mg/dL; cited from earlier work.
Assay [3] relates to diabetic patients hospitalized with acute MI. Conditions: IV insulin-glucose infusion then chronic insulin vs standard treatment; cited from earlier work.

Regarding insulin degludec, the “results of respective studies compared with the ORIGIN results of insulin glargine” value in assay [1] is “comparable results”.

As to insulin detemir, in assay [1], the “results of respective studies compared with the ORIGIN results of insulin glargine” value is on record as “comparable results”.

Turning to “insulin: insulin infusion or chronic insulin treatment in cited DIGAMI and Belgian ICU studies”, the “overall mortality at twelve-months follow-up” value in assay [2] is recorded as 8.0%. For the same substance, the “reduction of all-cause mortality” value in assay [3] was 28%.
